Patent US5612344A, “Triazoloquinazolines for the treatment of central nervous disorders” (BASF Aktiengesellschaft, priority 1992, dated 1997)

Experiments:
[1] = molecular target: T1, NMDA (N-methyl-D-aspartate) receptors (Rattus norvegicus, UniProt P35439); test: Binding of 3H-5,7-dichlorokynurenic acid (displacement from rat cerebra membrane material); settings: displacement of 3H-5,7-dichlorokynurenic acid, rat cerebra membranes, pH 7.4, on ice 30 minutes
T1 construct: isolated membrane material from rat cerebra; from tissue; host or cells: rat cerebrum membranes
Experimental: (§1) The pharmacological activity of the compounds I according to the invention was investigated on isolated membrane material from rat cerebra. To do this, the membrane material was treated in the presence of the compounds according to the invention with the radiolabeled substances ^3 H-2-amino-3-hydroxy-5-methyl-4-isoxazolepropionic acid (^3 H-AMPA) and ^3 H-5,7-dichlorokynurenic acid, these binding to specific receptors (AMPA and NMDA (N-methyl-D-aspartate) receptors respectively). Subsequently the radioactivity on the treated membranes was measured by scintillation counting. The amounts of bound ^3 H-AMPA and ^3 H-5,7-dichlorokynurenic acid, or in each case the amounts of these radiolabeled substances displaced, were determined from the bound radioactivity. The dissociation constant KI (I=inhibitor) which results from this and which is a measure of the displacing effect of the active substance according to the invention was found by iterative non-linear regression analysis using the statistical analysis system (SAS) on an IBM computer similar to the "ligand" program of P. J. Munson and D. Rodbard (Analytical Biochem., […], Ligand: Versatile Computerized Approach for Characterization of Ligand Binding Systems).
2. Binding of ^3 H-5,7-dichlorokynurenic acid
To prepare the membrane material, freshly removed rat cerebra were homogenized together with about 10 times the volume of a buffer solution A composed of 50 mM TRIS-HCl and 10 mM EDTA, pH 7.4. The suspension was centrifuged at 48,000 g for 20 minutes. […]
For the binding assay, the protein material was thawed at 37° C. and washed twice by centrifuging at 48,000 g (20 minutes) and subsequently suspending in a buffer solution B composed of 50 mM TRIS-HCl, pH 7.4. […] The radioactivity of the ^3 H-5,7-dichlorokynurenic acid bound to the membranes in the sediment was measured, and the KI was obtained by subjecting the displacement plots to regression analysis.

AMPA receptors = test: Binding of 3H-AMPA (displacement from rat cerebra membrane material); settings: displacement of 3H-AMPA, rat cerebra membranes, pH 7.1, on ice 60 minutes
Experimental: as §1
1. Binding of ^3 H-2-amino-3-hydroxy-5-methyl-4-isoxazolepropionic acid (^3 H-AMPA)
To prepare the membrane material, freshly removed rat cerebra were homogenized together with 15 times the volume of a buffer solution A composed of 30 mM α,α,α-tris(hydroxymethyl)methylamine hydrochloride (TRIS-HCl) and 0.5 mM ethylenediaminetetraacetic acid (EDTA), pH 7.4, using an Ultra-Turrax. […]
For the binding assay, the protein material was thawed at 37° C. and washed twice by centrifuging at 48,000 g (20 minutes) and subsequently suspending in a buffer solution B composed of 50 mM TRIS-HCl, 0.1M potassium thiocyanate and 2.5 mM calcium chloride, pH 7.1. […] The radioactivity of the bound ^3 H-AMPA in the membrane material was measured by scintillation counting and then the KI was determined by subjecting the displacement plots to regression analysis.

SMILES	Ki [1] [nM]	Ki (AMPA receptors) [nM]
O=C(O)c1nc2c3ccc(C(F)(F)F)cc3nc(=O)n2[nH]1 [8-Trifluoromethyl-1,2,4-triazolo[1,5-c]-quinazolin-5-one-2-carboxylic acid]		1400
CCOC(=O)c1nc2c3cc(C)c(C)cc3nc(=O)n2[nH]1 [Ethyl 8,9-dimethyl-1,2,4-triazolo-[1,5-c]-quinazolin-5-one-2-carboxylate]	160	

The remaining lines, values ahead:

Ki [1] [nM]	Ki (AMPA receptors) [nM]	SMILES
90		Cc1cc2nc(=O)n3[nH]c(C(=O)O)nc3c2cc1C [8,9-Dimethyl-1,2,4-triazolo[1,5-c]-quinazolin-5-one-2-carboxylic acid]
200	1300	O=C(O)c1nc2c3c(Cl)cc(Cl)cc3nc(=O)n2[nH]1 [8,10-Dichloro-1,2,4-triazolo[1,5-c]-quinazolin-5-one-2-carboxylic acid]
	2600	O=C(O)c1nc2c3ccc([N+](=O)[O-])cc3nc(=O)n2[nH]1 [8-Nitro-1,2,4-triazolo[1,5-c]-quinazolin-5-one-2-carboxylic acid]
